In brackets after ≈: the same amount, converted by molar mass.
Columns and labels:
[1] = test system: Mycobacterium tuberculosis; assay: Antimycobacterial activity against Mycobacterium tuberculosis H37Rv assessed as bacterial growth inhibition by microplate Alamar blue assay; format: functional
[2] = test system: Escherichia coli; assay: Antibacterial activity against Escherichia coli assessed as inhibition zone at 75 ug/ml by diffusion method; format: functional; details: read-out: IZ
[3] = test system: Escherichia coli; assay: Antibacterial activity against Escherichia coli assessed as inhibition zone at 50 ug/ml by diffusion method; format: functional; details: read-out: IZ
[4] = test system: Escherichia coli; assay: Antibacterial activity against Escherichia coli assessed as inhibition zone at 25 ug/ml by diffusion method; format: functional; details: read-out: IZ
[5] = test system: Staphylococcus aureus; assay: Antibacterial activity against Staphylococcus aureus assessed as inhibition zone at 75 ug/ml by diffusion method; format: functional; details: read-out: IZ
[6] = test system: Staphylococcus aureus; assay: Antibacterial activity against Staphylococcus aureus assessed as inhibition zone at 50 ug/ml by diffusion method; format: functional; details: read-out: IZ
[7] = test system: Pseudomonas aeruginosa; assay: Antibacterial activity against Pseudomonas aeruginosa assessed as inhibition zone at 75 ug/ml by diffusion method; format: functional; details: read-out: IZ
[8] = test system: Pseudomonas aeruginosa; assay: Antibacterial activity against Pseudomonas aeruginosa assessed as inhibition zone at 50 ug/ml by diffusion method; format: functional; details: read-out: IZ
[9] = test system: Pseudomonas aeruginosa; assay: Antibacterial activity against Pseudomonas aeruginosa assessed as inhibition zone at 25 ug/ml by diffusion method; format: functional; details: read-out: IZ
[10] = Cytotoxicity against African green monkey Vero cells measured after 72 hrs by MTT assay; format: toxicity, cell-based; details: chlorocebus sabaeus
[11] = Selectivity index, ratio of CC50 for African green monkey Vero cells to MIC for Mycobacterium tuberculosis H37Rv; format: toxicity; details: read-out: Selectivity Index
[12] = Cytotoxicity against African green monkey Vero cells assessed as inhibition of cell growth at 6.25 ug/ml measured after 72 hrs by MTT assay relative to control; format: toxicity, cell-based; details: chlorocebus sabaeus, at 6.25 µg/mL
[13] = test system: Staphylococcus aureus; assay: Antibacterial activity against Staphylococcus aureus assessed as inhibition zone at 25 ug/ml by diffusion method; format: functional; details: read-out: IZ

SMILES | MIC [1] [µM] | zone of inhibition at 75 µg/mL [2] [mm] | zone of inhibition at 50 µg/mL [3] [mm] | zone of inhibition at 25 µg/mL [4] [mm] | zone of inhibition at 75 µg/mL [5] [mm] | zone of inhibition at 50 µg/mL [6] [mm] | zone of inhibition at 75 µg/mL [7] [mm] | zone of inhibition at 50 µg/mL [8] [mm] | zone of inhibition at 25 µg/mL [9] [mm] | CC50 at 72 h [10] [mg/L] | selectivity ratio [11] | inhibition at 72 h, 6.25 ug/ml [12] [%] | zone of inhibition at 25 µg/mL [13] [mm]
O=C(CCc1cn(Cc2cn(Cc3ccc(F)cc3)nn2)c2ccccc12)N1CCN(C(=O)c2ccccc2C(F)(F)F)CC1 | 5 | 25 | 23 | 15 | 20 | 13 | 18 | 15 | 10 | 837 (≈ 1350 µM) | 268 | 5.4 | 
O=C(CCc1cn(Cc2cn(Cc3ccc(F)cc3)nn2)c2ccccc12)N1CCN(C(=O)c2ccnc(Cl)c2)CC1 | 2.7 | 20 | 18 |  | 18 | 13 | 15 | 13 | 10 | 1080 (≈ 1840 µM) | 673 | 11.8 | 13
O=C(CCc1cn(Cc2cn(Cc3ccc(F)cc3)nn2)c2ccccc12)N1CCN(S(=O)(=O)c2ccccc2)CC1 | 10.6 | 20 | 15 | 13 | 20 | 15 | 15 | 13 | 10 | 1540 (≈ 2630 µM) | 247 | 11.1 | 9
Cc1ccc(C(=O)N2CCN(C(=O)CCc3cn(Cc4cn(Cc5ccc(F)cc5)nn4)c4ccccc34)CC2)cc1 | 5.5 | 25 | 20 | 15 | 20 | 13 | 13 | 10 |  | 1320 (≈ 2340 µM) | 424 | 9.4 | 13
COc1ccc(C(=O)N2CCN(C(=O)CCc3cn(Cc4cn(Cc5ccc(F)cc5)nn4)c4ccccc34)CC2)cc1 | 2.7 | 25 | 23 | 15 | 20 | 18 | 18 | 13 | 9 | 1470 (≈ 2520 µM) | 916 | 8.8 | 12
O=C(CCc1cn(Cc2cn(Cc3ccc(F)cc3)nn2)c2ccccc12)N1CCN(C(=O)c2ccncc2F)CC1 | 5.5 | 20 | 15 |  | 18 | 15 | 18 | 15 | 10 | 882 (≈ 1550 µM) | 283 | 8.5 | 10
O=C(CCc1cn(Cc2cn(Cc3ccc(F)cc3)nn2)c2ccccc12)N1CCN(C(=O)c2cccnc2Cl)CC1 | 5.3 | 25 | 23 | 13 | 18 | 15 | 13 | 10 |  | 946 (≈ 1610 µM) | 303 | 10.1 | 10

Reference: ChEMBL document CHEMBL5523679, “Discovery of 1,2,3-triazole incorporated indole-piperazines as potent antitubercular agents: Design, synthesis, in vitro biological evaluation, molecular docking and ADME studies” (Bioorg Med Chem, 2024)
